Test results from US20090215857A1 (Pfizer Products Inc., priority 2005, published 2009).
Structures can show the parent of a compound that is named as a salt.

Key:
[1] = target: T1, human norepinephrine transporter (Homo sapiens, UniProt P23975); experiment: hNET receptor binding ([125I]-RTI-55 radioligand); conditions: membranes of HEK-293 cells transfected with human norepinephrine transporter cDNA; 50 pM [125I]-RTI-55; IC50 converted by Cheng-Prusoff; read-out: NET Ki
T1 construct: expressed in transfected cells; host or cells: HEK-293
T1 sequence (P23975 whole entry): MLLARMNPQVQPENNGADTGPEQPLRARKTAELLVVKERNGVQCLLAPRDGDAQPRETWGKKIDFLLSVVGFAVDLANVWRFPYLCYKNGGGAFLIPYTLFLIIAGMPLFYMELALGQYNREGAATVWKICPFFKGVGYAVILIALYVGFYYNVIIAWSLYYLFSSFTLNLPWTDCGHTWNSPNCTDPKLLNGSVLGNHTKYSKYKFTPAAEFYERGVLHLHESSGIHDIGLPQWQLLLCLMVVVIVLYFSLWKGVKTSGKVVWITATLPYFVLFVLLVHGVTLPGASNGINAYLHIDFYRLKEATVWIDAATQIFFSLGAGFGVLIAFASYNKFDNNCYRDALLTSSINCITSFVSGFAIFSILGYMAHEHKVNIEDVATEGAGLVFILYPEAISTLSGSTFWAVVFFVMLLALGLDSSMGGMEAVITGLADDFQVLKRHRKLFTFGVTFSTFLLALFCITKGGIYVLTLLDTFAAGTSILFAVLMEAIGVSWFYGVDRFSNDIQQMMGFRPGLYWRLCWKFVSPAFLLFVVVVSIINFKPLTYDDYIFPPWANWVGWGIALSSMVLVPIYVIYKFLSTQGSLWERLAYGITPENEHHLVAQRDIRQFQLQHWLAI
Summary of the method: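 Membranes from HEK-293 cells expressing human NET were incubated 90 min at room temperature with 50 pM [125I]-RTI-55 and test compound (10^−5M to 10^−12M) in Krebs-HEPES, pH 7.4.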

[2] = target: T2, human serotonin transporter (Homo sapiens, UniProt P31645); experiment: hSERT receptor binding ([125I]-RTI-55 radioligand); conditions: membranes of HEK-293 cells transfected with human serotonin transporter cDNA; 50 pM [125I]-RTI-55; IC50 converted by Cheng-Prusoff; read-out: SERT Ki
T2 construct: expressed in transfected cells; host or cells: HEK-293
T2 sequence (P31645 whole entry): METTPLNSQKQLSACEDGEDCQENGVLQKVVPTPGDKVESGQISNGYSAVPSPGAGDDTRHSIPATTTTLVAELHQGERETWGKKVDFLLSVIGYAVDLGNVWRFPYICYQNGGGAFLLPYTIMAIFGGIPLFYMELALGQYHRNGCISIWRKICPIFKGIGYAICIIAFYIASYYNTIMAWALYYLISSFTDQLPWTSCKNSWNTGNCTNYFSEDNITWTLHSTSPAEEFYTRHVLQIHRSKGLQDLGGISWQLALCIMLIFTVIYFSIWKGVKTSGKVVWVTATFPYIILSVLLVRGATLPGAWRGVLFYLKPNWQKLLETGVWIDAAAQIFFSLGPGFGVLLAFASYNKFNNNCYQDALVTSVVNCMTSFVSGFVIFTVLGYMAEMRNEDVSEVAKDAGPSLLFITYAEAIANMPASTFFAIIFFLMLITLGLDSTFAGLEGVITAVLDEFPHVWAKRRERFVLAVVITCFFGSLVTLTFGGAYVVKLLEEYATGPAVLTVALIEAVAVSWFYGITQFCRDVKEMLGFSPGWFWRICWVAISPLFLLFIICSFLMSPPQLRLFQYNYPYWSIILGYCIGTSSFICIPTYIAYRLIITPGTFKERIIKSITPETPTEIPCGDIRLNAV
Summary of the method: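 Ki values derive via Cheng-Prusoff from IC50s of displacement of 50 pM [125I]-RTI-55 binding to transfected HEK-293 membranes, 90 min at room temperature in pH 7.4 Krebs-HEPES buffer. Compounds spanned 10^−12 to 10^−5 M, in duplicate; nonspecific binding was set with 10 μM citalopram.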

Ki [1]	Ki [2]	SMILES
0.0306 µM	0.622 µM	Fc1cccc(-c2c(F)cccc2CO[C@H]2CCNC2)c1F [Example A-26, (S)-3-(6,2′,3′-Trifluoro-biphenyl-2-ylmethoxy)-pyrrolidine hydrochloride]
0.109 µM	0.0716 µM	Fc1ccc(-c2ccc(Cl)c(Cl)c2)c(CO[C@H]2CCNC2)c1 [Example D-83, (S)-3-(3′,4′-Dichloro-4-fluoro-biphenyl-2-ylmethoxy)-pyrrolidine]
0.832 µM	0.195 µM	CCOc1cccc(-c2ccc(F)cc2CO[C@H]2CCNC2)c1 [Example D-70, (S)-3-(3′-Ethoxy-4-fluoro-biphenyl-2-ylmethoxy)-pyrrolidine]
0.097 µM	0.155 µM	Fc1ccc(-c2ccc(Cl)cc2)c(CO[C@H]2CCNC2)c1 [Example D-111, (S)-3-(4′-Chloro-4-fluoro-biphenyl-2-ylmethoxy)-pyrrolidine]
2.67 µM	0.0169 µM	FC(F)(F)Oc1ccc(-c2ccccc2CO[C@H]2CCNC2)cc1 [Example D-43, (S)-3-(4′-Trifluoromethoxy-biphenyl-2-ylmethoxy)-pyrrolidine]
0.688 µM	0.0387 µM	Fc1ccc(-c2cccc(-n3cccn3)c2)c(CO[C@H]2CCNC2)c1 [Example D-116, (S)-1-[4′-Fluoro-2′-(pyrrolidin-3-yloxymethyl)-biphenyl-3-yl]-1H-pyrazole]
≥ 10 µM	0.658 µM	CC(C)Oc1ccc(-c2ccccc2CO[C@H]2CCNC2)cc1 [Example D-56, (S)-(4′-Isopropoxy-biphenyl-2-ylmethoxy)-pyrroldine]
0.0801 µM	0.247 µM	Fc1ccccc1-c1cccc(F)c1CO[C@H]1CCNC1 [Example A-30, (3S)-3-[(2′,3-difluorobiphenyl-2-yl)methoxy]pyrrolidine fumarate]
0.139 µM	0.0273 µM	COc1cccc(-c2ccccc2CO[C@H]2CCNC2)c1 [Example D-22, (S)-3-(3′-Methoxy-biphenyl-2-ylmethoxy)-pyrrolidine]
0.935 µM	0.0165 µM	Fc1ccc(-c2ccc(OC(F)(F)F)cc2)c(CO[C@H]2CCNC2)c1 [Example D-91, (S)-3-(4-Fluoro-4′-trifluoromethoxy-biphenyl-2-ylmethoxy)-pyrrolidine]
≥ 10 µM	0.589 µM	COc1cc(-c2ccccc2CO[C@H]2CCNC2)cc(OC)c1OC [Example D-57, (S)-3-(3′,4′,5′-Trimethoxy-biphenyl-2-ylmethoxy)-pyrrolidine]
1.34 µM	1.47 µM	CCc1ccccc1-c1ccc(F)cc1CO[C@H]1CCNC1 [Example D-113, (S)-3-(2′-Ethyl-4-fluoro-biphenyl-2-ylmethoxy)-pyrrolidine]
0.0135 µM	0.0345 µM	c1ccc(-c2ccccc2CO[C@H]2CCNC2)cc1 [Example A-7, (S)-3-(Biphenyl-2-ylmethoxy)-pyrrolidine hydrochloride]
0.56 µM	1.57 µM	N#Cc1cccc(-c2cccc(F)c2F)c1CO[C@H]1CCNC1 [Example E-3, (S)-2′,3′-Difluoro-2-(pyrrolidin-3-yloxymethyl)-biphenyl-3-carbonitrile fumarate]
≥ 10 µM	≥ 10 µM	COc1ccc(-c2ccccc2CO[C@H]2CCNC2)c(OC)c1 [Example D-54, (S)-3-(2′,4′-Dimethoxy-biphenyl-2-ylmethoxy)-pyrrolidine]
3.34 µM	0.0124 µM	c1cc(-c2ccccc2CO[C@H]2CCNC2)cc(-n2cccn2)c1 [Example D-45, (S)-1-[2′-(Pyrroldin-3-yloxymethyl)-biphenyl-3-yl]-1H-pyrazole]
0.0899 µM	0.436 µM	Fc1ccccc1-c1ccccc1CO[C@@H]1CCNC1 [Example A-16, (R)-3-(2′-Fluoro-biphenyl-2-ylmethoxy)-pyrrolidine fumarate]

Ki [1]	Ki [2]	SMILES
0.0179 µM	0.197 µM	CC(C)N(C(=O)c1ccccc1-c1ccccc1CO[C@H]1CCNC1)C(C)C [Example D-5, (S)-2′-(Pyrrolidin-3-yloxymethyl)-biphenyl-2-carboxylic acid diisopropylamide]
≥ 10 µM	≥ 10 µM	CCS(=O)(=O)c1ccc(-c2ccc(F)cc2CO[C@H]2CCNC2)cc1 [Example D-109, (S)-3-(4′-Ethanesulfonyl-4-fluoro-biphenyl-2-ylmethoxy)-pyrrolidine]
0.48 µM	0.319 µM	N#Cc1cccc(-c2ccc(F)cc2CO[C@H]2CCNC2)c1 [Example D-62, (S)-4′-Fluoro-2′-(pyrrolidin-3-yloxymethyl)-biphenyl-3-carbonitrile]
1.92 µM	0.0704 µM	COc1ccc(-c2ccc(F)cc2CO[C@H]2CCNC2)cc1OC [Example D-84, (S)-3-(4-Fluoro-3′,4′-dimethoxy-biphenyl-2-ylmethoxy)-pyrrolidine]
0.277 µM	0.457 µM	Cc1ccccc1-c1ccccc1CO[C@H]1CCNC1 [Example D-26, (S)-3-(2′-Methyl-biphenyl-2-ylmethoxy)-pyrrolidine]
1.26 µM	0.919 µM	CCOc1ccc(-c2ccccc2CO[C@H]2CCNC2)cc1 [Example D-40, (S)-3-(4′-Ethoxy-biphenyl-2-ylmethoxy)-pyrrolidine]
0.0683 µM	0.516 µM	Oc1cccc(-c2ccc(F)cc2CO[C@H]2CCNC2)c1 [Example D-90, (S)-4′-Fluoro-2′-(pyrrolidin-3-yloxymethyl)-biphenyl-3-ol]
0.0265 µM	0.317 µM	Fc1ccccc1-c1ccccc1CO[C@H]1CCNC1 [Example D-10, (S)-3-(2′-Fluoro-biphenyl-2-ylmethoxy)-pyrrolidine]
0.962 µM	3.78 µM	Fc1ccc(-c2ccccc2-c2ccccc2)c(CO[C@H]2CCNC2)c1 [Example D-101, (S)-3-(4″-Fluoro-[1,1′,2′,1″]terphenyl-2″-ylmethoxy)-pyrrolidine]
0.0659 µM	0.126 µM	Fc1ccc(-c2ccccc2)c(CO[C@H]2CCNC2)c1 [Example D-66, (S)-3-(4-Fluoro-biphenyl-2-ylmethoxy)-pyrrolidine]
1.97 µM	0.371 µM	CC(=O)c1cccc(-c2ccc(F)cc2CO[C@H]2CCNC2)c1 [Example D-81, (S)-1-[4′-Fluoro-2′-(pyrrolidin-3-yloxymethyl)-biphenyl-3-yl]-ethanone]
0.00484 µM	0.0392 µM	CCOc1cccc(-c2ccccc2CO[C@H]2CCNC2)c1 [Example D-1, (S)-3-(3′-Ethoxy-biphenyl-2-ylmethoxy)-pyrrolidine]
2.91 µM	2.47 µM	COc1ccc(-c2ccccc2CO[C@H]2CCNC2)cn1 [Example A-29, (S)-2-Methoxy-5-[2-(pyrrolidin-3-yloxymethyl)-phenyl]-pyridine fumarate]
0.464 µM	3.1 µM	COc1ccccc1-c1ccccc1CO[C@H]1CCNC1 [Example D-31, (S)-3-(2′-Methoxy-biphenyl-2-ylmethoxy)-pyrrolidine]
0.0392 µM	0.0103 µM	Fc1ccc(-c2ccccc2CO[C@H]2CCNC2)cc1Cl [Example A-11, (S)-3-(3′-Chloro-4′-fluoro-biphenyl-2-ylmethoxy)-pyrrolidine hydrochloride]
4.45 µM	0.709 µM	c1ccc(-c2ccc3c(c2)OCCCO3)c(CO[C@H]2CCNC2)c1 [Example D-50, (S)-3-[2-(3,4-Dihydro-2H-benzo[b][1,4]dioxepin-7-yl)-benzyloxy]-pyrrolidine]
